{"source": "patent EP0804408B1", "about": "“NOVEL 4-SUBSTITUTED 2,6-DI-TERT-BUTYLPHENOL COMPOUNDS, PHARMACEUTICAL COMPOSITIONS CONTAINING SAME AND PREPARATION METHOD THEREFOR” (priority 1994, dated 1996)", "tested_on": "cellules MT4", "experiment": "Cytotoxicity control on MT4 cells (uncontaminated AVF1 samples, diluted and ultracentrifuged)", "assay_type": "cell-based, humaines", "settings": "non contaminé, dilué et centrifugé, inoculated at dilution 1/4, 10 days culture", "experimental": "• Contrôles négatifs : • . Les cellules utilisées pour le titrage, non infectées (culture témoin). • . les trois concentrations de AVF1 utilisées dans l'étude, diluées en tampon NTE et ultracentrifugées. Ces échantillons (contrôles négatifs) ont été utilisés pour vérifier l'absence de toxicité due à des traces résiduelles de AVF1, sur les cellules MT4. • Contrôles positifs : • . Le VIH-1 dilué en milieu de culture à la dilution réalisée pour l'étude, immédiatement aliquoté et stocké à -80°C (contrôle positif). • . Le VIH-1 dilué en milieu de culture à la dilution réalisée pour l'étude, puis dilué en tampon NTE, ultracentrifugé, filtré sur un filtre de 0,45 µm, aliquoté, stocké à -80°C et titré ultérieurement (contrôle de centrifugation). • . Le VIH-1 dilué en milieu de culture à la dilution réalisée pour l'étude, laissé 10 minutes à température ambiante, puis dilué en tampon NTE, ultracentrifugé, filtré sur un filtre de 0,45 µm, aliquoté, stocké à -80°C et titré ultérieurement (contrôle expérimental).\nLe contrôle de toxicité a été réalisé dans des conditions identiques à celles décrites pour la méthode de titrage, mais en inoculant les cellules MT4 avec les échantillons non contaminés par le VIH-1 et décrits précédemment (contrôle négatif).\nLe critère de non toxicité du produit est établi a été établi en comparant l'aspect morphologique et la viabilité des cellules MT4 inoculées avec du milieu de culture (culture témoin) ou avec les échantillons non contaminés (contrôles négatifs) après 10 jours de culture.", "data": [{"smiles": "CC(C)(C)c1cc(C(=O)OCCOCCOCCOCCOCCOCCOCCOCCO)cc(C(C)(C)C)c1O", "note": "[AVF1, 3,5-di-t-butyl-4-hydroxybenzoate d'octaoxyéthylèneglycol]", "values": [{"measurement": "Remarques (toxicité sur cellules MT4)", "setting": "AVF1 dilué à 0,5%", "result": "Non toxique (échantillon inoculé à la dilution 1/4)"}, {"measurement": "Remarques (toxicité sur cellules MT4)", "setting": "AVF1 dilué à 1%", "result": "Non toxique (échantillon inoculé à la dilution 1/4)"}, {"measurement": "Remarques (toxicité sur cellules MT4)", "setting": "AVF1 dilué à 2%", "result": "Non toxique (échantillon inoculé à la dilution 1/4)"}]}]}
